± gives the standard deviation of the averaged measurements.
Columns and labels:
Test in all cases: relative cell number vs DMSO control (72 h) (% of DMSO); higher = less growth inhibition (more cells)
Settings in all cases: sgRNA knockout: sgNT
BT-20 = test system: BT-20
Experimental: (§1)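 QMAP-Seq: a pool of 5 breast cancer cell lines (ZR-75-1, SKBR3, HCC-38, MDA-MB-231, BT-20), each carrying 12 doxycycline-inducible Cas9 sgRNA perturbations (11 knockouts plus non-targeting sgNT), was treated with compounds for 72 h at four 10-fold doses (10 nM-10 uM or 1 nM-1 uM range). Barcodes were amplified and sequenced, and cell number was interpolated from 293T spike-in standard curves. The result is expressed as % of the median of DMSO wells. Two biological replicates.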

HCC-38 = test system: HCC-38
Experimental: as §1

MDA-MB-231 = test system: MDA-MB-231
Experimental: as §1

SKBR3 = test system: SKBR3
Experimental: as §1

ZR-75-1 = test system: ZR-75-1
Experimental: as §1

Structure (SMILES)	relative cell number (BT-20; 10 nM)	relative cell number (BT-20; 100 nM)	relative cell number (BT-20; 1000 nM)	relative cell number (BT-20; 10000 nM)	relative cell number (HCC-38; 10 nM)	relative cell number (HCC-38; 100 nM)	relative cell number (HCC-38; 1000 nM)	relative cell number (HCC-38; 10000 nM)	relative cell number (MDA-MB-231; 10 nM)	relative cell number (MDA-MB-231; 100 nM)	relative cell number (MDA-MB-231; 1000 nM)	relative cell number (MDA-MB-231; 10000 nM)	relative cell number (SKBR3; 10 nM)	relative cell number (SKBR3; 100 nM)	relative cell number (SKBR3; 1000 nM)	relative cell number (SKBR3; 10000 nM)	relative cell number (ZR-75-1; 10 nM)	relative cell number (ZR-75-1; 100 nM)	relative cell number (ZR-75-1; 1000 nM)	relative cell number (ZR-75-1; 10000 nM)	relative cell number (BT-20; 1 nM)	relative cell number (HCC-38; 1 nM)	relative cell number (MDA-MB-231; 1 nM)	relative cell number (SKBR3; 1 nM)	relative cell number (ZR-75-1; 1 nM)
COc1cc([C@@H]2c3cc4c(cc3[C@@H](O[C@@H]3O[C@@H]5CO[C@@H](C)O[C@H]5[C@H](O)[C@H]3O)[C@H]3COC(=O)[C@H]23)OCO4)cc(OC)c1O [Etoposide]	87 ± 6.6	83 ± 1.2	52.6 ± 0.56	36 ± 15	75.4 ± 33	84.8 ± 13	31.6 ± 5.3	20.5 ± 1.8	81.6 ± 3.5	71.7 ± 1.1	21.8 ± 1.8	11.9 ± 1.1	58 ± 10	50.1 ± 4.5	31.3 ± 9.5	12.6 ± 12	56 ± 2.7	54.5 ± 4.6	46.8 ± 4.2	31.5 ± 1.5					
CO[C@H]1C[C@@H]2CC[C@@H](C)[C@@](O)(O2)C(=O)C(=O)N2CCCC[C@H]2C(=O)O[C@H]([C@H](C)C[C@@H]2CC[C@@H](OCCO)[C@H](OC)C2)CC(=O)[C@H](C)/C=C(\C)[C@@H](O)[C@@H](OC)C(=O)[C@H](C)C[C@H](C)/C=C/C=C/C=C/1C [Everolimus]	63.7 ± 4.2	49.5 ± 6.8	71.5 ± 5.7		59.2 ± 2.3	64.7 ± 2.1	59.7 ± 3.3		50.9 ± 14	87.5 ± 11	88.3 ± 6.2		67.6 ± 1.8	57.5 ± 21	70.7 ± 0.84		66.8 ± 8.4	58 ± 11	42.7 ± 18		56 ± 3.1	56.5 ± 4.8	76.3 ± 15	55.6 ± 18	69.7 ± 18
C=C1C[C@@H]2[C@H](CC[C@]3(C)C(=O)CC[C@@H]23)[C@@]2(C)C=CC(=O)C=C12 [Exemestane]	99.8 ± 6	89.5 ± 1.1	103 ± 5.9	95.4 ± 9.2	108 ± 28	92 ± 12	113 ± 3.1	109 ± 25	89.3 ± 13	88.2 ± 22	80.5 ± 6	69.8 ± 21	108 ± 22	93.4 ± 18	115 ± 9.4	102 ± 12	123 ± 22	82.5 ± 26	104 ± 67	99 ± 4.8					
CC(C)n1c(/C=C/C(O)CC(O)CC(=O)O)c(-c2ccc(F)cc2)c2ccccc21 (stereo not given) [Fluvastatin]	67.8 ± 3.3	95 ± 7	97.3 ± 4.6	72.2 ± 16	110 ± 7.6	102 ± 6.7	96.6 ± 11	65.4 ± 2.2	108 ± 46	92.1 ± 46	30.8 ± 7.9	10.6 ± 3.6	64.9 ± 4	87.3 ± 1.6	82.5 ± 41	51 ± 34	78.2 ± 28	83.5 ± 20	62.6 ± 22	78.7 ± 1.4					
C[C@]12CC[C@@H]3c4ccc(O)cc4C[C@@H](CCCCCCCCC[S+]([O-])CCCC(F)(F)C(F)(F)F)[C@H]3[C@@H]1CC[C@@H]2O (stereo not given in full) [Fulvestrant]	95.9 ± 6.4	79.5 ± 6.8	86.6 ± 16	110 ± 24	83.8 ± 12	102 ± 2	103 ± 6.4	94.5 ± 1.7	83.6 ± 3.7	93.5 ± 22	89.8 ± 4	92 ± 12	90.75 ± 0.73	48.8 ± 3.3	65.8 ± 26	65.9 ± 19	66.3 ± 28	41.9 ± 3.1	73.3 ± 26	84 ± 39					
OCCn1cc(-c2ccc3c(c2)CC/C3=N\O)c(-c2ccncc2)n1 [GDC0879]	103 ± 17	112 ± 4.5	130 ± 8	110 ± 1.5	104 ± 17	124 ± 10	134 ± 12	107 ± 4.3	114 ± 15	92 ± 2.5	106 ± 4.8	105 ± 5.9	114 ± 27	151 ± 3.4	81.8 ± 29	110 ± 11	128.7 ± 1.1	137 ± 11	131 ± 12	122 ± 81					
CS(=O)(=O)N1CCN(Cc2cc3nc(-c4cccc5[nH]ncc45)nc(N4CCOCC4)c3s2)CC1 [GDC0941]	106 ± 16	82.9 ± 45	59.6 ± 12	55.9 ± 24	94.3 ± 5.9	95 ± 5.9	79.2 ± 12	33.5 ± 0.44	126 ± 30	84 ± 21	66.3 ± 8.2	44.3 ± 12	96.1 ± 17	67.8 ± 33	38.6 ± 4.8	35.6 ± 8.4	94.4 ± 15	62.4 ± 20	52.5 ± 23	26.1 ± 8.7					
CC(C)(C)OC(=O)CN(Cc1ccc(Cl)cc1)Cc1ccc([N+](=O)[O-])s1 [GSK4112]	73.6 ± 2	111 ± 14	94 ± 20	104 ± 3.4	78.9 ± 4.7	95.1 ± 11	95.8 ± 10	96.5 ± 11	82.6 ± 9.2	96.4 ± 7.3	82.9 ± 9.5	114 ± 40	87.6 ± 3.9	89 ± 20	66.5 ± 15	117 ± 11	100 ± 4.8	148 ± 35	86.4 ± 8.4	100 ± 29					
CCOC(=O)CCNc1cc(N2CCc3ccccc3CC2)nc(-c2ccccn2)n1 [GSKJ4]	86.2 ± 8	105 ± 1.5	122 ± 12	52.7 ± 5.3	103 ± 7.2	98.1 ± 1.7	96.1 ± 22	60.8 ± 9.7	98.3 ± 30	123 ± 22	96.8 ± 44	34 ± 7.1	94.1 ± 37	104 ± 3.1	101 ± 9.6	88.8 ± 34	125 ± 56	113 ± 3.1	110 ± 7.2	33.4 ± 1.8					
CC(C)c1cc(-c2n[nH]c(=O)n2-c2ccc3c(ccn3C)c2)c(O)cc1O [Ganetespib]	89.9 ± 2.6	44.8 ± 0.61	48.5 ± 11		94.7 ± 2.2	26.6 ± 1.2	18.5 ± 2.5		88.7 ± 21	13.7 ± 1.3	11.4 ± 7.9		75.4 ± 13	24.1 ± 5.2	30.5 ± 9.4		83.6 ± 40	18 ± 1.4	27.2 ± 3.3		96.6 ± 15	91 ± 2.5	88.2 ± 21	73.1 ± 28	96.883 ± 0.01
COc1cc2ncnc(Nc3ccc(F)c(Cl)c3)c2cc1OCCCN1CCOCC1 [Gefitinib]	95.4 ± 5.2	80.8 ± 9.2	86.3 ± 16	62.8 ± 13	84.4 ± 11	105.03 ± 0.0072	105 ± 18	92.41 ± 0.25	83.3 ± 31	76.2 ± 23	81.2 ± 19	108 ± 12	78.7 ± 18	95.3 ± 31	48.5 ± 17	36.6 ± 7.8	101 ± 13	116 ± 49	51.61 ± 0.097	44.4 ± 13					
Nc1ccn([C@@H]2O[C@H](CO)[C@@H](O)C2(F)F)c(=O)n1 [Gemcitabine]	68 ± 3.1	34 ± 5.5	28.3 ± 5	23.9 ± 15	20.2 ± 3.4	10.5 ± 0.58	12.9 ± 3.4	11.1 ± 3.8	18.5 ± 3.2	20.3 ± 7.1	15.6 ± 1.6	14 ± 3.5	26.2 ± 2.4	7.58 ± 1.7	11.1 ± 5.8	14.1 ± 6.9	36.6 ± 15	26.4 ± 0.51	33.9 ± 6	30.5 ± 2.7					

From the supplement of paper PMC7661543
